Reference: PMC12142871 (BMC Psychiatry, 2025)

Columns and labels:
[1] = cited from earlier work
[2] = dose-response meta-analysis; cited from earlier work
[3] = Therapeutic drug monitoring: steady-state trough serum sertraline concentration
[4] = Female, Adults, median (1st quartile, 3rd quartile), listed as sertraline

- C/D (dose-adjusted serum concentration) ([3]; Adults, median (1st quartile, 3rd quartile)): 0.50 (0.33, 0.71) (ng/ml)/(mg/d)
- C/D (dose-adjusted serum concentration) ([3]; Adults, median (1st quartile, 3rd quartile), listed as sertraline): 0.50 (ng/ml)/(mg/d)
- C/D (dose-adjusted serum concentration) ([3]; Children and Adolescents, median (1st quartile, 3rd quartile)): 0.44 (0.31, 0.67) (ng/ml)/(mg/d)
- C/D (dose-adjusted serum concentration) ([3]; Children and Adolescents, median (1st quartile, 3rd quartile), listed as sertraline): 0.44 (ng/ml)/(mg/d)
- Serum Concentration ([3]; Female, Adults, median (1st quartile, 3rd quartile)): 62.3 (33.5, 102.0) ng/mL
- C/D [3, 4]: 0.51 (ng/ml)/(mg/d)
- Serum Concentration [3, 4]: 62.3 ng/mL
- Serum Concentration ([3]; Female, Children and Adolescents, median (1st quartile, 3rd quartile)): 53.2 (32.4, 86.2) ng/mL
- Serum Concentration ([3]; Female, Total, median (1st quartile, 3rd quartile)): 57.0 (32.9, 95.5) ng/mL
- Serum Concentration ([3]; Male, Adults, median (1st quartile, 3rd quartile)): 55.8 (35.0, 86.0) ng/mL
- Serum Concentration ([3]; Male, Adults, median (1st quartile, 3rd quartile), listed as sertraline): 55.8 ng/mL
- Serum Concentration ([3]; Male, Children and Adolescents, median (1st quartile, 3rd quartile)): 41.8 (23.9, 65.5) ng/mL
- Serum Concentration ([3]; Male, Total, median (1st quartile, 3rd quartile)): 52.4 (31.6, 81.3) ng/mL
- C/D (dose-adjusted serum concentration) ([3]; Total, median (1st quartile, 3rd quartile)): 0.47 (0.32, 0.69) (ng/ml)/(mg/d)
- Coefficient of variation (CV) of C/D value ([3]; adults, interindividual): 61.1%
- Coefficient of variation (CV) of sertraline concentration ([3]; adults, interindividual): 68.0%
- Coefficient of variation (CV) of C/D value ([3]; younger patients (children and adolescents), interindividual): 80.6%
Structure (SMILES): CN[C@H]1CC[C@@H](c2ccc(Cl)c(Cl)c2)c2ccccc21 [Sertraline]
- reference range of serum concentration ([1]; children and adolescents, TDM-VIGIL study): 66 to 76 ng/mL
- coefficient of variation of concentration ([1]; interindividual pharmacokinetic variability): 59%
- effective daily range [2]: 50 to 150 mg
